This passage reports Ki, Selectivity and IC50 results from ChEMBL document CHEMBL1131246, “Design, synthesis, and biological evaluation of a second generation of pyrazolo[4,3-e]-1,2,4-triazolo[1,5-c]pyrimidines as potent and selective A2A adenosine receptor antagonists” (J Med Chem, 1998).

Assay [1] addresses T1, Adenosine receptor A3 (Homo sapiens, UniProt P0DMS8).
T1 sequence (P0DMS8 whole entry): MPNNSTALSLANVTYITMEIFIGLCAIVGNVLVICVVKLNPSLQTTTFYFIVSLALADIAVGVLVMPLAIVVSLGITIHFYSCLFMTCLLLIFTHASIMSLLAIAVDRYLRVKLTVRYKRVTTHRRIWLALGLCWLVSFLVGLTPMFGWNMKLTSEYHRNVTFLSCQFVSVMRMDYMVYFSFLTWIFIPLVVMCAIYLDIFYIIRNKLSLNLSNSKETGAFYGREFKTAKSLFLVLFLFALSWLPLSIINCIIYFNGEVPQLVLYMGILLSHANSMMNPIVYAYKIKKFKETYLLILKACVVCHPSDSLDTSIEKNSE
The assay is described as follows: biochemical.
Description: (§1) Displacement of [125I]AB-MECA from human Adenosine A3 receptor expressed in HEK293 cells

A short description of assay [2]: Selectivity for human A3 adenosine receptor and rat A2A adenosine receptor.
In assay [3] the target is Adenosine receptor A2a (Rattus norvegicus, UniProt P30543).
Chain of Adenosine receptor A2a (Rattus norvegicus, UniProt P30543) (P30543 whole entry): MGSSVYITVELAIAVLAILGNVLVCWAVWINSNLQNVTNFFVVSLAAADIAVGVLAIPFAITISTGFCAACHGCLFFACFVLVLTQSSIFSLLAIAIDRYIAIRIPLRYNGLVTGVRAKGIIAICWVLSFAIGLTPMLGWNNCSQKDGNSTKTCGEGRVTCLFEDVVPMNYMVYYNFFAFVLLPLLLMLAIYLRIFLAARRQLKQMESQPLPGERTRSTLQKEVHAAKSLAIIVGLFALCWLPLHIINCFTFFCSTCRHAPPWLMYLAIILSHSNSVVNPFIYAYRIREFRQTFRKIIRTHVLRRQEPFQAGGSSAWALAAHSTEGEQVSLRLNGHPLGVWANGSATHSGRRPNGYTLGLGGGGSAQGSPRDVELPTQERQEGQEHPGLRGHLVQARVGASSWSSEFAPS
The target in assay [4] is T2, Adenosine receptor A1 (Rattus norvegicus, UniProt P25099).
T2 sequence (P25099 whole entry): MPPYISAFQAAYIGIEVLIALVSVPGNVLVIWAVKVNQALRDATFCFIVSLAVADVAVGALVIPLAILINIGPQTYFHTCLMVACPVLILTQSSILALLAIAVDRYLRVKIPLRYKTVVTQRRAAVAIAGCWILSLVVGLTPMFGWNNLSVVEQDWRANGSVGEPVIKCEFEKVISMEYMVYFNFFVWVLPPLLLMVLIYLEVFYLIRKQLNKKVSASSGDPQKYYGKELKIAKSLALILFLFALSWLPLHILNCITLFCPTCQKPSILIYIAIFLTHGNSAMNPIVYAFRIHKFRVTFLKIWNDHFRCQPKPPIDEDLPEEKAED
Description: Displacement of [3H]CHA from rat cortical membrane Adenosine A1 receptor. Parenthesis indicate 95% confidence limit.

In assay [5] the target is T3, Adenosine receptor A2a (Homo sapiens, UniProt P29274). The experiment in a line: Inhibition of 1 uM NECA-stimulated cyclic AMP levels in human platelets. It counts as functional.
T3 sequence (P29274 whole entry): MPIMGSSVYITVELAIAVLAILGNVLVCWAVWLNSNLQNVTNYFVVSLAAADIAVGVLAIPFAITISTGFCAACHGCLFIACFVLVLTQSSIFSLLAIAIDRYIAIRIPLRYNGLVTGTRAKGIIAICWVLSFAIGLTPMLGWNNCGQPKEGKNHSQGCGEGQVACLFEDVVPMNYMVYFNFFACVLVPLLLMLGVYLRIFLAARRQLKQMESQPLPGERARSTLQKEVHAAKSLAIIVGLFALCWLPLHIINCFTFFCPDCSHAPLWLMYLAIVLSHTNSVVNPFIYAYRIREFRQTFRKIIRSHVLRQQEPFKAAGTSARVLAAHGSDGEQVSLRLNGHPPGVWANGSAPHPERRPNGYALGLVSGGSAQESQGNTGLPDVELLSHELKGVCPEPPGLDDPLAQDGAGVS
Assay [6] addresses T4, Adenosine receptor A1 (Homo sapiens, UniProt P30542).
T4 sequence (P30542 whole entry): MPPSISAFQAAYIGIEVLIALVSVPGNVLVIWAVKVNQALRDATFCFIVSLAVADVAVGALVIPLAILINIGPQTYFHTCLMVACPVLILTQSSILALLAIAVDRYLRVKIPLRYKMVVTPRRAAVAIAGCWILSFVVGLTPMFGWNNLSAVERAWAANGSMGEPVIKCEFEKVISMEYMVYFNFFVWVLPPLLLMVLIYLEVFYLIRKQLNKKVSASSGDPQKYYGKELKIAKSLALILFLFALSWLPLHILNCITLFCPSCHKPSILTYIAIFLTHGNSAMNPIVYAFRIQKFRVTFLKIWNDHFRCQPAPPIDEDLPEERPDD
The experiment in a line: Displacement of [3H]CHA from human Adenosine A1 receptor expressed in CHO cells. It counts as cell-based. In general terms: Loss of bound radioactivity is the signal in a displacement assay; it reports binding, not function.

Assay [7] has as its target T3, Adenosine receptor A2a. The assay is described as follows: Displacement of [3H]-SCH- 58261 from human Adenosine A2A receptor expressed in CHO cells. It counts as cell-based.
Assay [8] has as its target T1, Adenosine receptor A3. The assay is described as follows: biochemical. This is another data set of the same source.
Description: as §1

pIC50, pKi: −log10 of the molar value.

Usually pKi stands for −log10 of the Ki, conventionally taken in molar units. A higher pKi goes with a small Ki. By pIC50 is commonly meant −log10 of the IC50, conventionally taken in molar units. Low readings indicate a high IC50, high ones a low IC50. Take `Nc1nc2c(cnn2Cc2ccc(OCc3ccccc3)cc2)c2nc(-c3ccco3)nn12`: the negative logarithm of the Ki (pKi) at Adenosine receptor A3 [1] was < 5.00; on Adenosine receptor A2a [3] it was 6.61; on Adenosine receptor A1 [4], 5.02. Also, in assay [2], the Selectivity is > 40. In addition, the negative logarithm of the IC50 (pIC50) on Adenosine receptor A2a [5] is 6.30.
For `Nc1nc2c(cnn2CCc2ccc(O)cc2)c2nc(-c3ccco3)nn12`, in that order: < 5.00, 8.77, 6.35, > 5880 and 7.85.
For `Nc1nc2c(cnn2CCc2ccc(OCc3ccccc3)cc2)c2nc(-c3ccco3)nn12`, in that order: < 5.00, 7.23, < 5.00, > 169 and 7.05.
For the compound `Nc1nc2c(cnn2Cc2ccc(O)cc2)c2nc(-c3ccco3)nn12`, the figures for the negative-log Ki (pKi) at Adenosine receptor A3 [1], on Adenosine receptor A2a [3] and at Adenosine receptor A1 [4] were < 5.00, 7.28 and 4.87, respectively. Also, in assay [2], the Selectivity is > 188. Besides, the pIC50 against Adenosine receptor A2a [5] was 6.83.
Turning to `COc1ccc(CCCn2ncc3c2nc(N)n2nc(-c4ccco4)nc32)cc1OC`, the pKi on Adenosine receptor A1 [6] is 5.78; at Adenosine receptor A3 [1], < 5.00; at Adenosine receptor A2a [7], 8.57; on Adenosine receptor A2a [3], 8.28; on Adenosine receptor A1 [4], 5.55; on Adenosine receptor A3 [8], < 5.00. Further, in assay [2], the Selectivity was > 1890. For the same compound, the pIC50 at Adenosine receptor A2a [5] is 7.70.
With `Nc1nc2c(cnn2CCCc2ccc(O)c(O)c2)c2nc(-c3ccco3)nn12`, the pKi on Adenosine receptor A3 [1] was < 5.00; at Adenosine receptor A2a [3], 7.31; at Adenosine receptor A1 [4] it was 5.65. In addition, in assay [2], the Selectivity was > 204. For the same compound, on Adenosine receptor A2a [5], the negative logarithm of the IC50 (pIC50) was 7.22.
As for `Nc1nc2c(cnn2CCCc2ccc3c(c2)OCO3)c2nc(-c3ccco3)nn12`, the pKi at Adenosine receptor A1 [6] is 5.66; on Adenosine receptor A3 [1], < 5.00; at Adenosine receptor A2a [7], 8.48; at Adenosine receptor A2a [3] it was 8.42; at Adenosine receptor A1 [4], 5.73; on Adenosine receptor A3 [8], < 5.00. Besides, the Selectivity in assay [2] was > 2630. Besides, the pIC50 at Adenosine receptor A2a [5] was 8.10.
For `Nc1nc2ccc(Cl)cc2c2nc(-c3ccco3)nn12` [CGS-15943], the negative logarithm of the Ki (pKi) on Adenosine receptor A3 [1] is 7.85; at Adenosine receptor A2a [3] it was 9.02.
For the compound `Nc1nc2c(cnn2CCCc2ccc(O)cc2)c2nc(-c3ccco3)nn12`, the negative-log Ki (pKi) at Adenosine receptor A1 [6] is 6.60; at Adenosine receptor A3 [1] it was < 5.00; at Adenosine receptor A2a [7], 8.82; at Adenosine receptor A2a [3] it was 9.03; at Adenosine receptor A1 [4], 6.13; at Adenosine receptor A3 [8] it was < 5.00. In assay [2], the Selectivity was > 10600. The negative-log IC50 (pIC50) at Adenosine receptor A2a [5] is 8.00.
As to `Nc1nc2c(cnn2CCCc2ccccc2)c2nc(-c3ccco3)nn12` [SCH-63390], the negative-log Ki (pKi) at Adenosine receptor A3 [1] was < 5.00.
The same measure, in the same setting: in the case of `Nc1nc2c(cnn2CCc2ccccc2)c2nc(-c3ccco3)nn12` [SCH-58261] it was < 5.00.
Take `Nc1nc2c(cnn2CCCc2ccc(OCc3ccccc3)cc2)c2nc(-c3ccco3)nn12`: the pKi on Adenosine receptor A3 [1] is < 5.00; at Adenosine receptor A2a [3] it was 7.35; on Adenosine receptor A1 [4], 5.84. The Selectivity in assay [2] was > 222. This compound gave a pIC50 against Adenosine receptor A2a [5] of 6.52.
